Measured values reported in article PMC5218480 (PLoS ONE, 2017).

System: MV-4-11 cells
Assay: Gene expression microarray analysis (Affymetrix PrimeView) and GSEA
Type: cell-based, human
Set-up: RFU PODN (11730768_x_at) / Fold change /veh PODN (11730768_x_at) / RFU LINC00158 (11744669_a_at) / Fold change /veh LINC00158 (11744669_a_at) / RFU DUSP10 (11751237_a_at) / Fold change /veh DUSP10 (11751237_a_at) / RFU ID3 (11757404_x_at) / Fold change /veh ID3 (11757404_x_at) / RFU PLEKHG5 (11737974_s_at) / Fold change /veh PLEKHG5 (11737974_s_at) / RFU LRRC4B (11730491_at) / Fold change /veh LRRC4B (11730491_at) / RFU GIMAP4 (11747438_a_at) / Fold change /veh GIMAP4 (11747438_a_at) / RFU KRT8 (11758183_x_at) / Fold change /veh KRT8 (11758183_x_at) / RFU CNN1 (11734310_a_at) / Fold change /veh CNN1 (11734310_a_at) / RFU VPS37D (11726825_at) / Fold change /veh VPS37D (11726825_at) / RFU C10orf10 (11716522_x_at) / Fold change /veh C10orf10 (11716522_x_at) / RFU KIR2DL2 /// KIR2DL4 /// KIR2DL5A /// KIR2DL5B /// KIR2DS1 /// KIR2DS2 /// KIR2DS3 /// KIR2DS4 /// KIR3DL3 /// KIR3DL3 /// KIR3DS1 (11738374_at) / Fold change /veh KIR2DL2 /// KIR2DL4 /// KIR2DL5A /// KIR2DL5B /// KIR2DS1 /// KIR2DS2 /// KIR2DS3 /// KIR2DS4 /// KIR3DL3 /// KIR3DL3 /// KIR3DS1 (11738374_at) / RFU C1QL1 (11718748_at) / Fold change /veh C1QL1 (11718748_at) / RFU TMPRSS4 (11747572_a_at) / Fold change /veh TMPRSS4 (11747572_a_at) / RFU HAMP (11756126_x_at) / Fold change /veh HAMP (11756126_x_at) / RFU RNFT2 (11725882_a_at) / Fold change /veh RNFT2 (11725882_a_at) / RFU NR4A2 (11747474_a_at) / Fold change /veh NR4A2 (11747474_a_at) / RFU ABCC12 (11746883_a_at) / Fold change /veh ABCC12 (11746883_a_at) / RFU TMEM136 (11760407_x_at) / Fold change /veh TMEM136 (11760407_x_at) / RFU CLDN22 /// WWC2 (11732394_at) / Fold change /veh CLDN22 /// WWC2 (11732394_at) / RFU HLA-DPB1 (11760878_x_at) / Fold change /veh HLA-DPB1 (11760878_x_at) / RFU SPINT1 (11716480_a_at) / Fold change /veh SPINT1 (11716480_a_at) / RFU GAP43 (11754022_s_at) / Fold change /veh GAP43 (11754022_s_at) / RFU A4GNT (11735810_at) / Fold change /veh A4GNT (11735810_at) / RFU PRB3 (11715151_x_at) / Fold change /veh PRB3 (11715151_x_at) / RFU TUBB4B (11761932_at) / Fold change /veh TUBB4B (11761932_at) / RFU CAPN14 (11732068_a_at) / Fold change /veh CAPN14 (11732068_a_at) / RFU TMCC2 (11721928_a_at) / Fold change /veh TMCC2 (11721928_a_at) / RFU IRGQ (11745062_a_at) / Fold change /veh IRGQ (11745062_a_at) / RFU FAM174B (11720279_a_at) / Fold change /veh FAM174B (11720279_a_at) / RFU TMPRSS4 (11748680_a_at) / Fold change /veh TMPRSS4 (11748680_a_at) / RFU FAM212B (11763350_a_at) / Fold change /veh FAM212B (11763350_a_at) / RFU PLEKHG5 (11743358_a_at) / Fold change /veh PLEKHG5 (11743358_a_at) / RFU ZSCAN30 (11745921_a_at) / Fold change /veh ZSCAN30 (11745921_a_at) / RFU CMKLR1 (11741424_a_at) / Fold change /veh CMKLR1 (11741424_a_at) / RFU LOC101060620 /// MAPK8IP1 (11723275_at) / Fold change /veh LOC101060620 /// MAPK8IP1 (11723275_at) / RFU SPTSSB (11747773_x_at) / Fold change /veh SPTSSB (11747773_x_at) / RFU PRSS12 (11739890_at) / Fold change /veh PRSS12 (11739890_at) / RFU BIN1 (11741810_x_at) / Fold change /veh BIN1 (11741810_x_at) / RFU WNT11 (11732464_a_at) / Fold change /veh WNT11 (11732464_a_at) / RFU C10orf10 (11716521_a_at) / Fold change /veh C10orf10 (11716521_a_at) / RFU C5orf56 (11738089_at) / Fold change /veh C5orf56 (11738089_at) / RFU CYB561 (11721691_x_at) / Fold change /veh CYB561 (11721691_x_at) / RFU ANKRD19P (11752326_a_at) / Fold change /veh ANKRD19P (11752326_a_at) / RFU OR2T12 /// OR2T33 /// OR2T8 (11738714_s_at) / Fold change /veh OR2T12 /// OR2T33 /// OR2T8 (11738714_s_at) / RFU VCAN (11748164_a_at) / Fold change /veh VCAN (11748164_a_at) / RFU JSRP1 (11732532_at) / Fold change /veh JSRP1 (11732532_at) / RFU KRTAP10-11 (11738290_x_at) / Fold change /veh KRTAP10-11 (11738290_x_at) / RFU MYO3A (11730013_a_at) / Fold change /veh MYO3A (11730013_a_at) / RFU EBF3 (11725865_a_at) / Fold change /veh EBF3 (11725865_a_at) / RFU CAMK2N1 (11719241_x_at) / Fold change /veh CAMK2N1 (11719241_x_at) / RFU C5orf56 (11738088_a_at) / Fold change /veh C5orf56 (11738088_a_at) / RFU OLFML3 (11715873_a_at) / Fold change /veh OLFML3 (11715873_a_at) / RFU LOC100653217 /// NTM (11731650_a_at) / Fold change /veh LOC100653217 /// NTM (11731650_a_at) / RFU MAPK11 (11762145_a_at) / Fold change /veh MAPK11 (11762145_a_at) / RFU FIZ1 (11724087_x_at) / Fold change /veh FIZ1 (11724087_x_at) / RFU OASL (11726364_x_at) / Fold change /veh OASL (11726364_x_at) / RFU SOX15 (11748057_x_at) / Fold change /veh SOX15 (11748057_x_at) / RFU CD79A (11719716_a_at) / Fold change /veh CD79A (11719716_a_at) / RFU HIST1H1D (11736915_at) / Fold change /veh HIST1H1D (11736915_at) / RFU CASKIN2 (11723855_a_at) / Fold change /veh CASKIN2 (11723855_a_at) / RFU LOC730098 (11760151_x_at) / Fold change /veh LOC730098 (11760151_x_at) / RFU OR4N2 (11742367_at) / Fold change /veh OR4N2 (11742367_at) / RFU PRRT2 (11749266_a_at) / Fold change /veh PRRT2 (11749266_a_at) / RFU SNX32 (11753110_a_at) / Fold change /veh SNX32 (11753110_a_at) / RFU CDHR5 (11726645_a_at) / Fold change /veh CDHR5 (11726645_a_at) / RFU RCAN1 (11760418_a_at) / Fold change /veh RCAN1 (11760418_a_at) / RFU FAM167A (11723789_a_at) / Fold change /veh FAM167A (11723789_a_at) / RFU FAM26E (11764081_at) / Fold change /veh FAM26E (11764081_at) / RFU ISYNA1 (11749810_s_at) / Fold change /veh ISYNA1 (11749810_s_at) / RFU ACY1 (11761880_at) / Fold change /veh ACY1 (11761880_at) / RFU 11764098_at / Fold change /veh 11764098_at / RFU SAMD14 (11745864_x_at) / Fold change /veh SAMD14 (11745864_x_at) / RFU NPB (11741838_a_at) / Fold change /veh NPB (11741838_a_at) / RFU TMPRSS6 (11731388_a_at) / Fold change /veh TMPRSS6 (11731388_a_at) / RFU KRTAP10-2 (11738614_at) / Fold change /veh KRTAP10-2 (11738614_at) / RFU ARHGAP8 /// PRR5-ARHGAP8 (11727945_x_at) / Fold change /veh ARHGAP8 /// PRR5-ARHGAP8 (11727945_x_at) / RFU KRTAP5-7 /// NADSYN1 (11734609_at) / Fold change /veh KRTAP5-7 /// NADSYN1 (11734609_at) / RFU RASL12 (11751679_a_at) / Fold change /veh RASL12 (11751679_a_at) / RFU CDKN2B (11736163_a_at) / Fold change /veh CDKN2B (11736163_a_at) / RFU PRF1 (11729649_at) / Fold change /veh PRF1 (11729649_at) / RFU, ZNF638 /// ZNF638-IT1 / Fold change vs veh, ZNF638 /// ZNF638-IT1 / RFU, PANK3 / Fold change vs veh, PANK3 / RFU, SH3YL1 / Fold change vs veh, SH3YL1 / RFU, ZEB2 / Fold change vs veh, ZEB2 / RFU, NRIP1 / Fold change vs veh, NRIP1 / RFU, PTTG1IP / Fold change vs veh, PTTG1IP / RFU, CAPN2 / Fold change vs veh, CAPN2 / RFU, MED14 / Fold change vs veh, MED14 / RFU, SNORA58 / Fold change vs veh, SNORA58 / RFU, C1orf63 / Fold change vs veh, C1orf63 / RFU, LRRFIP1 / Fold change vs veh, LRRFIP1 / RFU, NDUFAF7 / Fold change vs veh, NDUFAF7 / RFU, SLC12A2 / Fold change vs veh, SLC12A2 / RFU, IBTK / Fold change vs veh, IBTK / RFU, ESF1 / Fold change vs veh, ESF1 / Fold change vs veh, TMEM50B / RFU, TAOK1 / Fold change vs veh, TAOK1 / RFU, ACBD3 / Fold change vs veh, ACBD3 / RFU, TMA16 / Fold change vs veh, TMA16 / RFU, RWDD3 / Fold change vs veh, RWDD3 / RFU, BCAT1 / Fold change vs veh, BCAT1 / RFU, EDEM3 / Fold change vs veh, EDEM3 / RFU, TMEM33 / Fold change vs veh, TMEM33 / RFU, WDR75 / Fold change vs veh, WDR75 / RFU, AHCTF1 / Fold change vs veh, AHCTF1 / RFU, TFRC / Fold change vs veh, TFRC / RFU, ZDHHC17 / Fold change vs veh, ZDHHC17 / RFU, NOM1 / Fold change vs veh, NOM1 / RFU, ARL8B / Fold change vs veh, ARL8B / RFU, ZBTB11 / Fold change vs veh, ZBTB11 / RFU, TAMM41 / Fold change vs veh, TAMM41 / RFU, KIAA1704 /// LOC100996395 / Fold change vs veh, KIAA1704 /// LOC100996395 / RFU, ING1 / Fold change vs veh, ING1 / RFU, TRMT61B / Fold change vs veh, TRMT61B / RFU, FUBP3 / Fold change vs veh, FUBP3 / RFU, TP53 / Fold change vs veh, TP53 / RFU, TNKS2 / Fold change vs veh, TNKS2 / RFU, ZFP14 / Fold change vs veh, ZFP14 / RFU, ACTR2 / Fold change vs veh, ACTR2 / RFU, PPP3R1 / Fold change vs veh, PPP3R1 / RFU, PIK3R1 / Fold change vs veh, PIK3R1 / RFU, HNRNPA1 / Fold change vs veh, HNRNPA1 / RFU, RNF170 / Fold change vs veh, RNF170 / RFU, ZNF28 / Fold change vs veh, ZNF28 / RFU, RNGTT / Fold change vs veh, RNGTT / RFU, OGT / Fold change vs veh, OGT / RFU, BRD1 / Fold change vs veh, BRD1 / RFU, MARS / Fold change vs veh, MARS / RFU, ZNF655 / Fold change vs veh, ZNF655 / RFU, FAHD1 / Fold change vs veh, FAHD1 / RFU, BDP1 / Fold change vs veh, BDP1 / RFU, LRRCC1 / Fold change vs veh, LRRCC1 / RFU, ARID1A / Fold change vs veh, ARID1A / RFU, ZNF146 / Fold change vs veh, ZNF146 / RFU, ZNF330 / Fold change vs veh, ZNF330 / RFU, GPN3 / Fold change vs veh, GPN3 / RFU, C9orf123 / Fold change vs veh, C9orf123 / RFU, N4BP2L2 / Fold change vs veh, N4BP2L2 / RFU, ARFIP1 / Fold change vs veh, ARFIP1 / RFU, FAM179B / Fold change vs veh, FAM179B / RFU, BCL10 / Fold change vs veh, BCL10 / RFU, UHRF1BP1L / Fold change vs veh, UHRF1BP1L / RFU, BET1 / Fold change vs veh, BET1 / RFU, CNOT2 / Fold change vs veh, CNOT2 / RFU, ZNF268 / Fold change vs veh, ZNF268 / Fold change vs veh, ZNF507 / RFU, DGCR2 / Fold change vs veh, DGCR2 / RFU, WDSUB1 / Fold change vs veh, WDSUB1 / Fold change vs veh, HSP90B1 /// MIR3652 / RFU, ADSS / Fold change vs veh, ADSS / RFU, GK / Fold change vs veh, GK / RFU, ZNF148 / Fold change vs veh, ZNF148 / RFU, TAF9 / Fold change vs veh, TAF9 / RFU, SLC1A5 / Fold change vs veh, SLC1A5 / RFU, SLMO2 / Fold change vs veh, SLMO2 / RFU, ABCC4 / Fold change vs veh, ABCC4 / RFU, LOC101060439 /// RAP1B / Fold change vs veh, LOC101060439 /// RAP1B / RFU, RFX7 / Fold change vs veh, RFX7 / RFU, GTPBP10 / Fold change vs veh, GTPBP10 / RFU, CNEP1R1 / Fold change vs veh, CNEP1R1 / RFU, BIVM-ERCC5 /// ERCC5 / Fold change vs veh, BIVM-ERCC5 /// ERCC5 / RFU, ILF3 / Fold change vs veh, ILF3 / RFU 11762660_at / Fold change /veh 11762660_at / RFU VCAN (11757783_s_at) / Fold change /veh VCAN (11757783_s_at) / RFU DDX43 (11728927_at) / Fold change /veh DDX43 (11728927_at) / RFU KRT8 (11758188_x_at) / Fold change /veh KRT8 (11758188_x_at) / RFU NKD1 (11759106_at) / Fold change /veh NKD1 (11759106_at) / RFU SRD5A1 (11742802_a_at) / Fold change /veh SRD5A1 (11742802_a_at) / RFU TPSAB1 /// TPSB2 (11721975_s_at) / Fold change /veh TPSAB1 /// TPSB2 (11721975_s_at) / RFU GSTM3 (11746129_a_at) / Fold change /veh GSTM3 (11746129_a_at) / RFU IL23R (11737362_x_at) / Fold change /veh IL23R (11737362_x_at) / RFU TMEM51 (11727254_a_at) / Fold change /veh TMEM51 (11727254_a_at) / RFU PIWIL2 (11732686_x_at) / Fold change /veh PIWIL2 (11732686_x_at) / RFU ORM1 (11744905_x_at) / Fold change /veh ORM1 (11744905_x_at) / RFU CCDC152 (11743942_at) / Fold change /veh CCDC152 (11743942_at) / RFU ECM1 (11717891_a_at) / Fold change /veh ECM1 (11717891_a_at) / RFU IL23R (11748794_a_at) / Fold change /veh IL23R (11748794_a_at) / RFU TNFAIP8L3 (11732012_x_at) / Fold change /veh TNFAIP8L3 (11732012_x_at) / RFU MBOAT4 (11741988_at) / Fold change /veh MBOAT4 (11741988_at) / RFU 11764193_at / Fold change /veh 11764193_at / RFU TMEM53 (11763286_at) / Fold change /veh TMEM53 (11763286_at) / RFU MAGEB2 (11727129_at) / Fold change /veh MAGEB2 (11727129_at) / RFU TMEM200A (11744735_a_at) / Fold change /veh TMEM200A (11744735_a_at) / RFU CCDC152 (11751479_a_at) / Fold change /veh CCDC152 (11751479_a_at) / RFU FAM211A (11726209_a_at) / Fold change /veh FAM211A (11726209_a_at) / RFU RGS16 (11746705_a_at) / Fold change /veh RGS16 (11746705_a_at) / RFU VCAN (11755009_s_at) / Fold change /veh VCAN (11755009_s_at) / RFU RHOB (11743442_s_at) / Fold change /veh RHOB (11743442_s_at) / RFU RGS16 (11720943_a_at) / Fold change /veh RGS16 (11720943_a_at) / RFU RGS16 (11720944_at) / Fold change /veh RGS16 (11720944_at) / RFU, VPS4B / Fold change vs veh, VPS4B / RFU, CREB1 / Fold change vs veh, CREB1 / RFU, DNAJC13 / Fold change vs veh, DNAJC13 / RFU, GNAQ / Fold change vs veh, GNAQ / RFU, CDK5R1 / Fold change vs veh, CDK5R1 / RFU, ZRANB3 / Fold change vs veh, ZRANB3 / RFU, CUL4A / Fold change vs veh, CUL4A / RFU, CCNY / Fold change vs veh, CCNY / RFU, UFL1 / Fold change vs veh, UFL1 / RFU, COG3 / Fold change vs veh, COG3 / RFU, DIAPH2 / Fold change vs veh, DIAPH2 / RFU, SKA2 / Fold change vs veh, SKA2 / RFU, AFF3 / Fold change vs veh, AFF3 / RFU, LMF1 / Fold change vs veh, LMF1 / RFU, IPO11 / Fold change vs veh, IPO11 / RFU, DFFB / Fold change vs veh, DFFB / RFU, FOXP1 / Fold change vs veh, FOXP1 / RFU, CARD8 / Fold change vs veh, CARD8 / RFU, STRN3 / Fold change vs veh, STRN3 / RFU, ADK / Fold change vs veh, ADK / RFU, RASSF2 / Fold change vs veh, RASSF2 / RFU, WIPF1 / Fold change vs veh, WIPF1 / RFU, LARP1B / Fold change vs veh, LARP1B / RFU, RASA1 / Fold change vs veh, RASA1 / RFU, RB1 / Fold change vs veh, RB1 / RFU, PPFIA1 / Fold change vs veh, PPFIA1 / RFU, MAT2A / Fold change vs veh, MAT2A / RFU, CCT5 / Fold change vs veh, CCT5 / RFU, WDR92 / Fold change vs veh, WDR92 / RFU, CUX1 / Fold change vs veh, CUX1 / RFU, TTC7A / Fold change vs veh, TTC7A / RFU, TMEM135 / Fold change vs veh, TMEM135 / RFU, DEPTOR / Fold change vs veh, DEPTOR / RFU, CPM / Fold change vs veh, CPM / RFU, DNAJB6 / Fold change vs veh, DNAJB6 / RFU, CACNA2D3 / Fold change vs veh, CACNA2D3 / RFU, DTX4 / Fold change vs veh, DTX4 / RFU, TFCP2 / Fold change vs veh, TFCP2 / RFU, GMCL1 /// GMCL1P1 / Fold change vs veh, GMCL1 /// GMCL1P1 / RFU, AEBP2 / Fold change vs veh, AEBP2 / RFU, SNHG1 /// SNORD22 /// SNORD25 /// SNORD26 /// SNORD27 /// SNORD28 /// SNORD29 /// SNORD31 / Fold change vs veh, SNHG1 /// SNORD22 /// SNORD25 /// SNORD26 /// SNORD27 /// SNORD28 /// SNORD29 /// SNORD31 / Fold change (Aza/veh), C12orf56 (ProbeSet 11735607_a_at) / Fold change (ACY-1035/veh), C12orf56 (ProbeSet 11735607_a_at) / Fold change (Aza/veh), FGFR1OP (ProbeSet 11751329_s_at) / Fold change (ACY-1035/veh), FGFR1OP (ProbeSet 11751329_s_at) / Fold change (Aza/veh), VPS36 (ProbeSet 11739960_a_at) / Fold change (ACY-1035/veh), VPS36 (ProbeSet 11739960_a_at) / RFU SYPL1 (11715823_x_at) / Fold change /veh SYPL1 (11715823_x_at) / RFU IGFBP7 (11715501_s_at) / Fold change /veh IGFBP7 (11715501_s_at) / RFU REEP3 (11722064_at) / Fold change /veh REEP3 (11722064_at) / RFU IGLL1 (11728026_x_at) / Fold change /veh IGLL1 (11728026_x_at): dose or concentration left out as unconfirmed
Conditions: MV-4-11 cells, 48 hours

## Nc1ncn([C@@H]2O[C@H](CO)[C@@H](O)[C@H]2O)c(=O)n1 [azacitidine]
  Fold change /veh ISYNA1 (11749810_s_at): 1.06
